For the test, the system named is CD2F1 mice, L1210 leukemia ip, survival T/C. Kind of test: NCI In Vivo Anticancer Drug Screen. Data for tumor model L1210 Leukemia (intraperitoneal) in CD2F1 (CDF1) mice. As to conditions: higher = longer survival. Put shortly: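 Each value reflects a quotient of treated over vehicle control outcomes in mice with a transplanted tumor.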
Where [1] appears, read: endpoint: mean survival time, dose: 100.0 mg/kg/injection, schedule: Q04DX002 (ip), vehicle: saline with Tween-80.
[2] abbreviates: endpoint: mean survival time, dose: 200.0 mg/kg/injection, schedule: Q04DX002 (ip), vehicle: saline with Tween-80.
Where [3] appears, read: endpoint: mean survival time, dose: 100.0 mg/kg/injection, schedule: Q01DX009 (ip), vehicle: saline with Tween-80.
The mark [4] stands for this setting: endpoint: mean survival time, dose: 200.0 mg/kg/injection, schedule: Q01DX009 (ip), vehicle: saline with Tween-80.
Setting [5] is: endpoint: mean survival time, dose: 400.0 mg/kg/injection, schedule: Q01DX009 (ip), vehicle: saline with Tween-80.
Where [6] appears, read: endpoint: mean survival time, dose: 100.0 mg/kg/injection, schedule: Q04DX003 (ip), vehicle: saline with Tween-80.
The mark [7] stands for this setting: endpoint: mean survival time, dose: 200.0 mg/kg/injection, schedule: Q04DX003 (ip), vehicle: saline with Tween-80.
[8] abbreviates: endpoint: mean survival time, dose: 400.0 mg/kg/injection, schedule: Q04DX003 (ip), vehicle: saline with Tween-80.

Each structure is given as a SMILES string. “And” between values parts separate entries of the source, which are not always exact repeats. Equal entries are not always repeated. Inconclusive results and toxic doses are left out.

Regarding `[Cl][Pt+2][Cl].[NH-]C1CCCC1.[NH-]C1CCCC1`, the T/C (endpoint: mean survival time, dose: 5.0 mg/kg/injection, schedule: Q01DX009 (ip), vehicle: Klucel (hydroxypropylcellulose) (HPC)) was 103 % of control; the T/C (endpoint: mean survival time, dose: 10.0 mg/kg/injection, schedule: Q01DX009 (ip), vehicle: Klucel (hydroxypropylcellulose) (HPC)) is 104 % of control; the T/C (endpoint: mean survival time, dose: 20.0 mg/kg/injection, schedule: Q01DX009 (ip), vehicle: Klucel (hydroxypropylcellulose) (HPC)) was 116 % of control and 104 % of control and 108 % of control; the T/C (endpoint: mean survival time, dose: 20.0 mg/kg/injection, schedule: Q04DX003 (ip), vehicle: Klucel (hydroxypropylcellulose) (HPC)) is 103 % of control; the T/C (endpoint: mean survival time, dose: 40.0 mg/kg/injection, schedule: Q01DX001 (ip), vehicle: Klucel (hydroxypropylcellulose) (HPC)) is 96 % of control; the T/C (endpoint: mean survival time, dose: 40.0 mg/kg/injection, schedule: Q01DX009 (ip), vehicle: Klucel (hydroxypropylcellulose) (HPC)) is 115 % of control and 104 % of control. Moreover, the T/C is 103 % of control (endpoint: mean survival time, dose: 40.0 mg/kg/injection, schedule: Q04DX003 (ip), vehicle: Klucel (hydroxypropylcellulose) (HPC)); 105 % of control (endpoint: mean survival time, dose: 80.0 mg/kg/injection, schedule: Q01DX001 (ip), vehicle: Klucel (hydroxypropylcellulose) (HPC)); 121 % of control and 124 % of control (endpoint: mean survival time, dose: 80.0 mg/kg/injection, schedule: Q01DX009 (ip), vehicle: Klucel (hydroxypropylcellulose) (HPC)); 111 % of control (endpoint: mean survival time, dose: 80.0 mg/kg/injection, schedule: Q04DX003 (ip), vehicle: Klucel (hydroxypropylcellulose) (HPC)); 102 % of control (endpoint: mean survival time, dose: 160.0 mg/kg/injection, schedule: Q01DX001 (ip), vehicle: Klucel (hydroxypropylcellulose) (HPC)); 115 % of control (endpoint: mean survival time, dose: 160.0 mg/kg/injection, schedule: Q01DX009 (ip), vehicle: Klucel (hydroxypropylcellulose) (HPC)). The T/C (endpoint: mean survival time, dose: 160.0 mg/kg/injection, schedule: Q04DX003 (ip), vehicle: Klucel (hydroxypropylcellulose) (HPC)) was 111 % of control; the T/C (endpoint: mean survival time, dose: 320.0 mg/kg/injection, schedule: Q01DX001 (ip), vehicle: Klucel (hydroxypropylcellulose) (HPC)) is 106 % of control; the T/C (endpoint: mean survival time, dose: 320.0 mg/kg/injection, schedule: Q01DX009 (ip), vehicle: Klucel (hydroxypropylcellulose) (HPC)) was 115 % of control and 103 % of control; the T/C (endpoint: mean survival time, dose: 320.0 mg/kg/injection, schedule: Q04DX003 (ip), vehicle: Klucel (hydroxypropylcellulose) (HPC)) was 108 % of control; the T/C (endpoint: mean survival time, dose: 640.0 mg/kg/injection, schedule: Q01DX001 (ip), vehicle: Klucel (hydroxypropylcellulose) (HPC)) was 114 % of control.
As for `NC(=O)c1c[se]c(C2OC(CO)C(O)C2O)n1` (stereo not given), the T/C reads like this: (endpoint: median survival time, dose: 12.5 mg/kg/injection, schedule: Q01DX009 (ip), vehicle: water) 174 % of control and 187 % of control; (endpoint: median survival time, dose: 25.0 mg/kg/injection, schedule: Q01DX009 (ip), vehicle: water) 170 % of control and 193 % of control; (endpoint: median survival time, dose: 50.0 mg/kg/injection, schedule: Q01DX009 (ip), vehicle: water) 206 % of control and 233 % of control; (endpoint: median survival time, dose: 100.0 mg/kg/injection, schedule: Q01DX009 (ip), vehicle: water) 216 % of control and 233 % of control.
Consider `O=C(O)CNCc1ccc2c(c1)OCCO2`, for which the T/C (endpoint: mean survival time, dose: 100.0 mg/kg/injection, schedule: Q01DX009 (ip), vehicle: Klucel (hydroxypropylcellulose) (HPC)) is 103 % of control; the T/C (endpoint: mean survival time, dose: 200.0 mg/kg/injection, schedule: Q01DX009 (ip), vehicle: Klucel (hydroxypropylcellulose) (HPC)) is 98 % of control; the T/C (endpoint: mean survival time, dose: 400.0 mg/kg/injection, schedule: Q01DX009 (ip), vehicle: Klucel (hydroxypropylcellulose) (HPC)) was 95 % of control.
On to `CC(C)C(=O)C(C)(C)c1nc2ccccc2[nH]1`, for which the T/C is 106 % of control under setting [1]; 98 % of control under setting [2]; 87 % of control (endpoint: mean survival time, dose: 400.0 mg/kg/injection, schedule: Q04DX002 (ip), vehicle: saline with Tween-80).
As to `CC(C)(C)OC(=O)NC(CCCCNC(=O)C(F)(F)F)C(=O)O` (stereo not given), the T/C is, setting by setting: under setting [3], 102 % of control; under setting [4], 93 % of control; under setting [5], 87 % of control.
For `CCCOC(=O)c1cncn1C(C)c1ccccc1` (stereo not given), the T/C (endpoint: mean survival time, dose: 100.0 mg/kg/injection, schedule: Q01DX001 (ip), vehicle: saline) is 102 % of control.
Turning to `CN(C(=O)c1cccnc1)c1ccccc1`, the T/C by setting is: under setting [3], 98 % of control; under setting [4], 101 % of control; under setting [5], 103 % of control.
As to `O=C(c1ccc(-c2ccccc2)cc1)c1no[n+]([O-])c1C(=O)c1ccc(-c2ccccc2)cc1`, the T/C by setting is: under setting [3], 96 % of control; under setting [6], 86 % of control; under setting [4], 93 % of control; under setting [7], 98 % of control; under setting [8], 88 % of control.
With `O=C1OC(OC(=O)c2ccccc2)C(Nc2ccccc2)=C1Br` (stereo not given), the T/C is 101 % of control under setting [3], 101 % of control under setting [4] and 97 % of control under setting [5].
Consider `N#CC[CH2][Sn]([c]1ccccc1)([c]1ccccc1)[c]1ccccc1`, for which the T/C reads like this: under setting [6], 94 % of control; under setting [7], 91 % of control; under setting [8], 89 % of control.
For the compound `O=C(O)c1ccccc1C(=O)c1ccccc1`, the T/C (endpoint: mean survival time, dose: 100.0 mg/kg/injection, schedule: Q01DX009 (ip), vehicle: saline) was 97 % of control; the T/C (endpoint: mean survival time, dose: 100.0 mg/kg/injection, schedule: Q04DX003 (ip), vehicle: saline) was 90 % of control; the T/C (endpoint: mean survival time, dose: 200.0 mg/kg/injection, schedule: Q01DX009 (ip), vehicle: saline) was 101 % of control; the T/C (endpoint: mean survival time, dose: 200.0 mg/kg/injection, schedule: Q04DX003 (ip), vehicle: saline) was 95 % of control; the T/C (endpoint: mean survival time, dose: 400.0 mg/kg/injection, schedule: Q01DX009 (ip), vehicle: saline) was 101 % of control; the T/C (endpoint: mean survival time, dose: 400.0 mg/kg/injection, schedule: Q04DX003 (ip), vehicle: saline) was 103 % of control.
As to `CCc1c2c(nc3ccc(OC(=O)N4CCC(N5CCCCC5)CC4)cc13)-c1cc3c(c(=O)n1C2)COC(=O)[C@]3(O)CC`, the T/C is, setting by setting: (endpoint: median survival time, dose: 26.4 mg/kg/injection, schedule: Q04HX004 (iv), vehicle: water) 177 % of control; (endpoint: median survival time, dose: 39.6 mg/kg/injection, schedule: Q04DX002 (ip), vehicle: water) 206 % of control; (endpoint: median survival time, dose: 39.6 mg/kg/injection, schedule: Q04HX004 (iv), vehicle: water) 192 % of control; (endpoint: median survival time, dose: 59.3 mg/kg/injection, schedule: Q04DX002 (ip), vehicle: water) 231 % of control; (endpoint: median survival time, dose: 59.3 mg/kg/injection, schedule: Q04HX004 (iv), vehicle: water) 193 % of control; (endpoint: median survival time, dose: 89.0 mg/kg/injection, schedule: Q04DX002 (ip), vehicle: water) 500 % of control. Also, the T/C (endpoint: median survival time, dose: 89.0 mg/kg/injection, schedule: Q04HX004 (iv), vehicle: water) was 209 % of control.
For the compound `CC1(C)N=C(N)N=C(N)N1c1ccc(OCCOc2ccc(NC(=O)CBr)cc2)cc1`, the T/C was 118 % of control (endpoint: mean survival time, dose: 176.0 mg/kg/injection, schedule: Q01DX006 (ip), vehicle: other); 124 % of control (endpoint: mean survival time, dose: 266.0 mg/kg/injection, schedule: Q01DX006 (ip), vehicle: other); 94 % of control (endpoint: mean survival time, dose: 600.0 mg/kg/injection, schedule: Q01DX006 (ip), vehicle: other).
As for `CC1SC(=Nc2ccc(S(N)(=O)=O)cc2)NC1=O` (stereo not given), the T/C is 105 % of control (endpoint: mean survival time, dose: 50.0 mg/kg/injection, schedule: Q04DX002 (ip), vehicle: saline with Tween-80); 105 % of control under setting [1]; 89 % of control (endpoint: mean survival time, dose: 200.0 mg/kg/injection, schedule: Q01DX001 (ip), vehicle: saline with Tween-80); 102 % of control under setting [2].
With `COc1cc(NCC(C)(O)CN2CCCC(C)C2C)c2ncccc2c1` (stereo not given), the T/C is, setting by setting: (endpoint: mean survival time, dose: 3.12 mg/kg/injection, schedule: Q01DX009 (ip), vehicle: saline) 101 % of control; (endpoint: mean survival time, dose: 6.25 mg/kg/injection, schedule: Q01DX009 (ip), vehicle: saline) 101 % of control; (endpoint: mean survival time, dose: 12.5 mg/kg/injection, schedule: Q01DX009 (ip), vehicle: saline) 101 % of control; (endpoint: mean survival time, dose: 25.0 mg/kg/injection, schedule: Q01DX009 (ip), vehicle: saline) 103 % of control; (endpoint: mean survival time, dose: 50.0 mg/kg/injection, schedule: Q01DX009 (ip), vehicle: saline) 102 % of control.

The values above are taken from PubChem BioAssay AID256 (DTP/NCI, 2004).
